Measurements: patent US5288709A, “Erythromycin derivatives” (priority 1991, dated 1994)
In brackets after ≈: the same amount, converted by molar mass. Like-named read-outs stand apart in the source and are kept apart here.

Key:
Test in all cases: In-vitro antimicrobial activity primary screen (agar dilution MIC)
Type in all cases: cell-based
[1] = system: Staphylococcus aureus CMX 553; conditions: Staphylococcus aureus, CMX553, 24 h, BHI agar, 20-24 h, read-out: MIC
Procedure, shortened: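 Agar dilution in Brain Heart Infusion agar with twelve successive compound dilutions; plates inoculated with 1:100 diluted cultures by replicator and incubated 20-24 h at 35-37 °C. MIC is the lowest concentration giving no growth, slight haze or sparse isolated colonies versus compound-free control; erythromycin A plate run as reference.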

[2] = system: Micrococcus luteus ATCC 9341; conditions: 20-24 h
Procedure, shortened: (§1)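 Steps: prepare 12 BHI agar plates with serial aqueous dilutions; inoculate with 1:100 dilutions (1:10 for Streptococcus and other slow growers); incubate 35-37° C, 20-24 h; score MIC as lowest concentration with no growth, slight haze or isolated colonies.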

[3] = system: Streptococcus agalactiae CMX 508; conditions: CMX508, BHI agar, 20-24 h, read-out: MIC
Procedure, shortened: as §1

[4] = system: Pseudomonas cepacia 2961; conditions: BHI agar, 20-24 h
Procedure, shortened: as §1

[5] = system: Klebsiella pneumoniae ATCC 8045
Procedure, shortened: as §1

[6] = system: Staphylococcus aureus 642A; conditions: BHI agar, 20-24 h, read-out: MIC
Procedure, shortened: as §1

[7] = system: Escherichia coli DC-2
Procedure, shortened: as §1

[8] = system: Streptococcus pyrogenes EES61; conditions: BHI agar, 20-24 h, read-out: MIC
Procedure, shortened: as §1

[9] = system: Enterococcus faecium ATCC 8043
Procedure, shortened: as §1

[10] = system: Micrococcus luteus ATCC 4698; conditions: 20-24 h
Procedure, shortened: as §1

[11] = system: Staphylococcus aureus 45; conditions: BHI agar, 20-24 h
Procedure, shortened: as §1

[12] = system: Staphylococcus aureus A5177; conditions: Staphylococcus aureus, A5177, 24 h
Procedure, shortened: as §1

[13] = system: Staphylococcus epidermidis 3519; conditions: BHI agar, 20-24 h
Procedure, shortened: as §1

[14] = system: Pseudomonas aeruginosa K799/WT
Procedure, shortened: as §1

[15] = system: Staphylococcus aureus 45 RAR2; conditions: Staphylococcus aureus, 45RAR2, 24 h, BHI agar, 20-24 h
Procedure, shortened: as §1

[16] = system: Providencia stuartii CMX 640
Procedure, shortened: as §1

[17] = system: Streptococcus pyrogenes 2548 INDUC; conditions: BHI agar, 20-24 h
Procedure, shortened: as §1

[18] = system: Escherichia coli SS; conditions: BHI agar, 20-24 h
Procedure, shortened: as §1

[19] = system: Pseudomonas aeruginosa K799/61; conditions: Pseudomonas aeruginosa K799/61, BHI agar, 20-24 h
Procedure, shortened: as §1

[20] = system: Escherichia coli H560; conditions: Escherichia coli, H560, 24 h
Procedure, shortened: as §1

[21] = system: Staphylococcus aureus ATCC 6538P; conditions: ATCC6538P, BHI agar, 20-24 h
Procedure, shortened: as §1

[22] = system: Escherichia coli JUHL
Procedure, shortened: as §1

[23] = system: Pseudomonas aeruginosa A5007
Procedure, shortened: as §1

[24] = system: Streptococcus bovis A5169; conditions: Streptococcus equinus, A5169, 24 h, BHI agar, 20-24 h
Procedure, shortened: as §1

[25] = system: Staphylococcus aureus NCTC 10649; conditions: NCTC10649, BHI agar, 20-24 h, read-out: MIC
Procedure, shortened: as §1

[26] = system: Enterobacter aerogenes ATCC 13048; conditions: Klebsiella aerogenes
Procedure, shortened: as §1

[27] = system: Pseudomonas aeruginosa BMH10; conditions: Pseudomonas aeruginosa, BMH10, 24 h, BHI agar, 20-24 h
Procedure, shortened: as §1

[28] = system: Acinetobacter SP CMX 669; conditions: Acinetobacter, SPCMX669, 24 h, Acinetobacter SP CMX 669; BHI agar, 20-24 h
Procedure, shortened: as §1

**Q.** Which results are given for `CC[C@H]1OC(=O)[C@H](C)[C@@H](O[C@H]2C[C@@](C)(OC)[C@@H](OC(N)=O)[C@H](C)O2)[C@H](C)[C@@H](O[C@@H]2O[C@H](C)C[C@H](N(C)C)[C@H]2O)[C@](C)(O)C[C@@H](C)[C@@H]2O[C@@]1(C)C(=O)[C@H]2C` [Example 31, (9S)-4"-O-Aminocarbonyl-9-deoxo-11,12-dideoxy-9,12-epoxy-11-oxoerythromycinA]?
**A.** MIC [1]: 0.05 µg/mL (≈ 0.0659 µM); MIC ([2]; Micrococcus luteus, ATCC9341, 24 h, BHI agar): 0.02 µg/mL (≈ 0.0264 µM); MIC [3]: 0.02 µg/mL (≈ 0.0264 µM); MIC ([4]; Burkholderia cepacia, read-out: MIC): > 100 µg/mL; MIC ([5]; ATCC8045, Klebsiella pneumoniae ATCC 8045, BHI agar, 20-24 h, read-out: MIC): 100 µg/mL (≈ 132 µM); MIC [6]: 0.05 µg/mL (≈ 0.0659 µM); MIC ([7]; DC2, Escherichia coli DC-2, BHI agar, 20-24 h, read-out: MIC): 100 µg/mL (≈ 132 µM); MIC [8]: 0.02 µg/mL (≈ 0.0264 µM); MIC ([9]; ATCC8043, Enterococcus faecium ATCC 8043, BHI agar, 20-24 h, read-out: MIC): 0.05 µg/mL (≈ 0.0659 µM); MIC ([10]; ATCC4698, BHI agar, read-out: MIC): 0.05 µg/mL (≈ 0.0659 µM); MIC ([11]; read-out: MIC): 0.05 µg/mL (≈ 0.0659 µM); MIC [12]: 50 µg/mL (≈ 65.9 µM); MIC ([13]; read-out: MIC): 0.05 µg/mL (≈ 0.0659 µM); MIC ([14]; Pseudomonas aeruginosa K799/WT, BHI agar, 20-24 h, read-out: MIC): 100 µg/mL (≈ 132 µM); MIC [15]: 0.05 µg/mL (≈ 0.0659 µM); MIC ([16]; CMX640, Providencia stuartii CMX 640, BHI agar, 20-24 h, read-out: MIC): > 100 µg/mL; MIC ([17]; read-out: MIC): 0.78 µg/mL (≈ 1.03 µM); MIC ([18]; Escherichia coli, 24 h): 0.2 µg/mL (≈ 0.264 µM); MIC ([19]; read-out: MIC): 1.56 µg/mL (≈ 2.06 µM); MIC ([20]; Escherichia coli H560, BHI agar, 20-24 h): 50 µg/mL (≈ 65.9 µM); MIC ([21]; read-out: MIC): 0.05 µg/mL (≈ 0.0659 µM); MIC ([22]; Escherichia coli JUHL, BHI agar, 20-24 h, read-out: MIC): 100 µg/mL (≈ 132 µM); MIC ([23]; Pseudomonas aeruginosa A5007, BHI agar, 20-24 h, read-out: MIC): > 100 µg/mL; MIC [24]: 0.05 µg/mL (≈ 0.0659 µM); MIC [25]: 0.05 µg/mL (≈ 0.0659 µM); MIC ([26]; ATCC13048, Enterobacter aerogenes ATCC 13048, BHI agar, 20-24 h, read-out: MIC): 100 µg/mL (≈ 132 µM); MIC [27]: 50 µg/mL (≈ 65.9 µM)

**Q.** `CC[C@H]1OC(=O)[C@H](C)[C@@H](O[C@H]2C[C@@](C)(OC)[C@@H](O)[C@H](C)O2)[C@H](C)[C@@H](O[C@@H]2O[C@H](C)C[C@H](N(C)C)[C@H]2O)[C@](C)(OC)C[C@@H](C)[C@@H]2O[C@@]1(C)C(=O)[C@H]2C` [Example 28B] was tested. Which MIC [1] did it give?
**A.** 0.39 µg/mL (≈ 0.534 µM)

**Q.** What about the MIC ([2]; ATCC9341, BHI agar, read-out: MIC) of the same compound?
**A.** 0.05 µg/mL (≈ 0.0685 µM)

**Q.** What about the MIC [28] of the same compound?
**A.** 12.5 µg/mL (≈ 17.1 µM)

**Q.** What about the MIC [3] of the same compound?
**A.** 0.02 µg/mL (≈ 0.0274 µM)

**Q.** And the MIC ([4]; Burkholderia cepacia, 2961, 24 h)?
**A.** > 100 µg/mL

**Q.** And the MIC ([5]; Klebsiella pneumoniae, ATCC8045, 24 h)?
**A.** > 100 µg/mL

**Q.** And the MIC [6]?
**A.** 0.39 µg/mL (≈ 0.534 µM)

**Q.** And the MIC ([7]; Escherichia coli, DC2, 24 h)?
**A.** > 100 µg/mL

**Q.** What about the MIC [8] of the same compound?
**A.** 0.02 µg/mL (≈ 0.0274 µM)

**Q.** And the MIC ([9]; Enterococcus faecium, ATCC8043, 24 h)?
**A.** 0.1 µg/mL (≈ 0.137 µM)

**Q.** And the MIC ([10]; Micrococcus luteus, ATCC4698, 24 h, BHI agar)?
**A.** 0.1 µg/mL (≈ 0.137 µM)

**Q.** What about the MIC ([11]; Staphylococcus aureus, 45, 24 h) of the same compound?
**A.** 3.1 µg/mL (≈ 4.25 µM)

**Q.** And the MIC [12]?
**A.** 0.39 µg/mL (≈ 0.534 µM)

**Q.** And the MIC ([13]; Staphylococcus epidermidis, 3519, 24 h)?
**A.** 0.39 µg/mL (≈ 0.534 µM)

**Q.** And the MIC ([14]; Pseudomonas aeruginosa, K799/WT, 24 h)?
**A.** > 100 µg/mL

**Q.** And the MIC [15]?
**A.** 0.39 µg/mL (≈ 0.534 µM)

**Q.** What about the MIC ([16]; Providencia stuartii, CMX640, 24 h) of the same compound?
**A.** > 100 µg/mL

**Q.** What about the MIC ([17]; Streptococcus, 2548INDUC, 24 h) of the same compound?
**A.** 3.1 µg/mL (≈ 4.25 µM)

**Q.** And the MIC ([18]; read-out: MIC)?
**A.** 0.39 µg/mL (≈ 0.534 µM)

**Q.** And the MIC ([19]; Pseudomonas aeruginosa, K799/61, 24 h)?
**A.** 3.1 µg/mL (≈ 4.25 µM)

**Q.** What about the MIC [20] of the same compound?
**A.** > 100 µg/mL

**Q.** What about the MIC ([21]; Staphylococcus aureus, 24 h) of the same compound?
**A.** 0.39 µg/mL (≈ 0.534 µM)

**Q.** And the MIC ([22]; Escherichia coli, 24 h)?
**A.** > 100 µg/mL

**Q.** And the MIC ([23]; Pseudomonas aeruginosa, A5007, 24 h)?
**A.** > 100 µg/mL

**Q.** And the MIC [24]?
**A.** 0.05 µg/mL (≈ 0.0685 µM)

**Q.** What about the MIC [25] of the same compound?
**A.** 0.39 µg/mL (≈ 0.534 µM)

**Q.** And the MIC ([26]; ATCC13048, 24 h)?
**A.** > 100 µg/mL

**Q.** What about the MIC [27] of the same compound?
**A.** 50 µg/mL (≈ 68.5 µM)
